Experimental data taken from publication PMC6071225 (Viruses, 2018).

Experiments:
[1] = system: NA with H275Y mutation, strain A/WSN/1933 (H1N1); conditions: cited from earlier work
[2] = target: H275Y NA2009; assay type: biochemical, A/California/07/2009 (H1N1) influenza virus
[3] = system: H275Y NA2009; assay type: binding, A/California/07/2009 (H1N1) influenza virus
[4] = system: H275Y/I223V 2009 pandemic H1N1 virus; conditions: cited from earlier work
[5] = system: H275Y/I223V NA2009; assay type: biochemical, A/California/07/2009 (H1N1) influenza virus
[6] = system: H275Y/S247N 2009 pandemic H1N1 virus; conditions: cited from earlier work
[7] = system: H275Y/S247N NA2009; assay type: biochemical, A/California/07/2009 (H1N1) influenza virus
[8] = target: I223V NA2009; assay type: biochemical, A/California/07/2009 (H1N1) influenza virus
[9] = system: I223V NA2009; assay type: binding, A/California/07/2009 (H1N1) influenza virus
[10] = system: S247N NA2009; assay type: biochemical, A/California/07/2009 (H1N1) influenza virus
[11] = system: S247N NA2009; assay type: binding, A/California/07/2009 (H1N1) influenza virus

CCC(CC)[C@H](NC(C)=O)[C@@H]1[C@H](O)[C@@H](C(=O)O)C[C@H]1N=C(N)N [peramivir]
reduction in susceptibility conferred by His to Tyr mutation at position 275 [1]: 260 fold

CCC(CC)O[C@@H]1C=C(C(=O)O)C[C@H](N)[C@H]1NC(C)=O [oseltamivir carboxylate]
reduction in susceptibility conferred by His to Tyr mutation at position 275 [1]: 750 fold | Ki [2]: 27 µM | enthalpy change less favorable than the wt value [3]: 8.7 kcal/mol | more favorable entropic contribution (referenced to the wt value) [3]: 6 kcal/mol | Kd ([3]; pH 6.15): 13.2 µM | ΔG ([3]; pH 6.15): -6.7 ± 0.03 kcal/mol | ΔH ([3]; pH 6.15): -2.1 ± 0.04 kcal/mol | −T·ΔS ([3]; pH 6.15): -4.6 ± 0.1 kcal/mol | enhanced oseltamivir-resistant phenotype compared to the recombinant wt virus [4]: 1733 fold | Fold Ki [5]: 3900 fold | Ki [5]: 94 µM | increase in Ki compared to H275Y NA2009 [5]: more than three-fold | enhanced oseltamivir-resistant phenotype compared to the recombinant wt virus [6]: 7000 fold | Fold Ki [7]: 9000 fold | Ki [7]: 220 µM | increase in Ki compared to the H275Y single mutant [7]: 8 fold | increase in Ki compared to the S247N single mutant [7]: 500 fold | Ki [8]: 0.7 ± 0.1 µM | less favorable enthalpy change compared to wt [9]: 1.4 kcal/mol | more favorable entropic contribution compared to wt [9]: 0.6 kcal/mol | Kd ([9]; pH 6.15): 0.52 ± 0.03 µM | ΔG ([9]; pH 6.15): -8.6 ± 0.1 kcal/mol | ΔH ([9]; pH 6.15): -9.4 ± 0.1 kcal/mol | −T·ΔS ([9]; pH 6.15): 0.9 ± 0.2 kcal/mol | Fold Ki [10]: 19 fold | Ki [10]: 0.45 ± 0.04 µM | entropic contribution of binding compared to wt [11]: almost unaffected | less favorable enthalpy change compared to wt [11]: 0.4 kcal/mol | Kd ([11]; pH 6.15): 0.41 ± 0.02 µM | ΔG ([11]; pH 6.15): -8.7 ± 0.03 kcal/mol | ΔH ([11]; pH 6.15): -10.4 ± 0.1 kcal/mol | −T·ΔS ([11]; pH 6.15): 1.7 ± 0.1 kcal/mol
